Test results: patent publication US9730445B2, “Herbicidal compositions comprising 4-amino-3-chloro-5-fluoro-6-(4-chloro-2-fluoro-3-methoxyphenyl) pyridine-2-carboxylic acid or a derivative thereof and fungicides” (DOW AGROSCIENCES LLC, priority 2013, dated 2017)

Experiments:
DIGSA = test: Postemergence foliar-applied weed control, direct-seeded rice (greenhouse); type: in vivo, Digitaria sanguinalis (L.) Scop. (large crabgrass); details: 21 DAA, r9-11 acid 5.3/10.6/21.2 g ae/ha alone, r12 propiconazole 190 g ai/ha alone, r13-15 acid 5.3/10.6/21.2 + 190
Source text: (§1) Seeds or nutlets of the desired test plant species were planted in a soil matrix prepared by mixing aloam or sandy loam soil (e.g., 28.6 percent silt, 18.8 percent clay, and 52.6 percent sand, with a pH of about 5.8 and an organic matter content of about 1.8 percent) and calcareous grit in an 80 to 20 ratio. The soil matrix was contained in plastic pots with a volume of 1 quart and a surface area of 83.6 square centimeters (cm^2). When required to ensure good germination and healthy plants, a fungicide treatment and/or other chemical or physical treatment was applied. The plants were grown for 8-22 days in a greenhouse with an approximate 14 hour (h) photoperiod which was maintained at about 29° C. during the day and 26° C. during the night. Nutrients (Peters Excel® 15-5-15 5-Ca 2-Mg and iron chelate) were applied in the irrigation solution as needed and water was added on a regular basis. Supplemental lighting was provided with overhead metal halide 1000-Watt lamps as necessary. The plants were employed for testing when they reached the first through fourth true leaf stage.
(§2) Treatments consisted of the acid or esters of 4-amino-3-chloro-5-fluoro-6-(4-chloro-2-fluoro-3-methoxy-phenyl)pyridine-2-carboxylic acid (Compound A), each formulated as an SC (suspension concentrate), and various fungicidal components alone and in combination. Forms of compound A were applied on an acid equivalent basis.
(§3) Treatment requirements were calculated based upon the rates being tested, the concentration of active ingredient or acid equivalent in the formulation and a 12 milliliter (mL) application volume at a rate of 187 liters per hectare (L/ha).
(§4) For treatments comprised of formulated compounds, measured amounts of compounds were placed individually in 25 mL glass vials and diluted in a volume of 1.25% volume per volume (v/v) Agri-Dex® crop oil concentrate to obtain 12× stock solutions. […] Application solutions were prepared by adding an appropriate amount of each stock solution (e.g., 1 mL) and diluted to the appropriate final concentrations with the addition of […] of an aqueous mixture of 1.25% (v/v) crop oil concentrate so that the final spray solutions contained 1.25+/−0.05% (v/v) crop oil concentrate.
(§5) For treatments comprised of technical compounds, weighed amounts can be placed individually in 25 mL glass vials and dissolved in a volume of 97:3 volume per volume (v/v) acetone/dimethyl sulfoxide (DMSO) to obtain 12× stock solutions. […] When technical materials are used, the concentrated stock solutions can be added to the spray solutions so that the final acetone and DMSO concentrations of the application solutions are 16.2% and 0.5%, respectively.
(§6) As required, additional water and/or 97:3 v/v acetone/DMSO was added to individual application solutions so that the final acetone and DMSO concentrations of the application solutions being compared were 8.1% and 0.25%, respectively
(§7) All stock solutions and applications solutions were visually inspected for compound compatibility prior to application. Spray solutions were applied to the plant material with an overhead Mandel track sprayer equipped with 8002E nozzles calibrated to deliver 187 L/ha over an application area of 0.503 square meters (m^2) at a spray height of 18 to 20 inches (46 to 50 cm) above average plant canopy height. Control plants were sprayed in the same manner with the solvent blank.
(§8) The treated plants and control plants were placed in a greenhouse as described above and watered by sub-irrigation to prevent wash-off of the test compounds. After approximately 3 weeks, the condition of the test plants as compared with that of the untreated plants was determined visually and scored on a scale of 0 to 100 percent where 0 corresponds to no injury or growth inhibition and 100 corresponds to complete kill. […]

LEFCH = test: as above; type: in vivo, Leptochloa chinensis (L.) Nees (Chinese sprangletop)
Protocol: as §1, with “When required to ensure good germination and healthy plants, a fungicide treatment and/or other chemical or physical treatment was applied.” left out
as §2, §4, §5, §6, §7
(§9) The treated plants and control plants were placed in a greenhouse as described above and watered by sub-irrigation to prevent wash-off of the test compounds. After approximately 3 weeks, the condition of the test plants as compared with that of the untreated plants was determined visually and scored on a scale of 0 to 100 percent where 0 corresponds to no injury or growth inhibition and 100 corresponds to complete kill.
(§10) Colby's equation was used to determine the herbicidal effects expected from the mixtures (Colby, S. R. Calculation of the synergistic and antagonistic response of herbicide combinations. Weeds 1967, 15, 20-22.).
(§11) The following equation was used to calculate the expected activity of mixtures containing two active ingredients, A and B: Expected=A+B−(A×B/100)

ECHCO = test: as above; type: in vivo, Echinochloa colonum (L.) LINK (junglerice); details: 19 DAA, r9-11 ester 8/16/32 g ae/ha alone
Source text: as §1, §2, §3, §4, §5, §6, §7, §8

IPOHE = test: as above; type: in vivo, Ipomoea hederacea (L.) Jacq. (ivyleaf morningglory)
Protocol: as §1, with “When required to ensure good germination and healthy plants, a fungicide treatment and/or other chemical or physical treatment was applied.” left out
as §2, §4, §5, §6, §7, §9, §10, §11

ECHCG = test: as above; type: in vivo, Echinochloa crus-galli (L.) P. Beauv. (barnyardgrass); details: r10-11 ester 8/16 g ae/ha alone, r12-14 phthalide 100/200/300 g ai/ha alone, r15-20 ester 8/16 at each of 100, 200, 300
Protocol: as §1, with “When required to ensure good germination and healthy plants, a fungicide treatment and/or other chemical or physical treatment was applied.” left out
as §2, §4, §5, §6, §7, §9, §10, §11

CYPRO = test: In-water applied weed control, transplanted paddy rice (greenhouse); type: in vivo, Cyperus rotundus L. (purple nutsedge); details: 22 DAA
Protocol: Weed seeds or nutlets of the desired test plant species were planted in puddled soil (mud) prepared by mixing a shredded, non-sterilized mineral soil (50.5 percent silt, 25.5 percent clay, and 24 percent sand, with a pH of about 7.6 and an organic matter content of about 2.9 percent) and water at a 1:1 volumetric ratio. The prepared mud was dispensed in 365 mL aliquots into 16-ounce (oz.) non-perforated plastic pots with a surface area of 86.59 square centimeters (cm^2) leaving a headspace of 3 centimeters (cm) in each pot. Rice seeds were planted in Sun Gro MetroMix® 306 planting mixture, which typically has a pH of 6.0 to 6.8 and an organic matter content of about 30 percent, in plastic plug trays. Seedlings at the second or third leaf stage of growth were transplanted into 860 mL of mud contained in 32-oz. non-perforated plastic pots with a surface area of 86.59 cm^2 4 days prior to herbicide application. The paddy was created by filling the headspace of the pots with 2.5 to 3 cm of water. When required to ensure good germination and healthy plants, a fungicide treatment and/or other chemical or physical treatment was applied. The plants were grown for 4-22 days in a greenhouse with an approximate 14 hour (h) photoperiod which was maintained at about 29° C. during the day and about 26° C. during the night. Nutrients were added as Osmocote® (17:6:10, N:P:K+minor nutrients) at 2 g per cup. Water was added on a regular basis to maintain the paddy flood, and supplemental lighting was provided with overhead metal halide 1000-Watt lamps as necessary. The plants were employed for testing when they reached the first through fourth true leaf stage.
Treatments consisted of the acid or esters of 4-amino-3-chloro-5-fluoro-6-(4-chloro-2-fluoro-3-methoxy-phenyl)pyridine-2-carboxylic acid (compound A) each formulated as an SC (suspension concentrate) and various fungicidal components alone and in combination. Forms of compound A were applied on an acid equivalent basis.
Treatment requirements for each compound or fungicidal component were calculated based upon the rates being tested, the concentration of active ingredient or acid equivalent in the formulation, an application volume of 2 mL per component per pot, and an application area of 86.59 cm^2 per pot.
For formulated compounds, a measured amount was placed in an individual 100 or 200 mL glass vial and was dissolved in a volume of 1.25% (v/v) Agri-Dex® crop oil concentrate to obtain application solutions.
For technical grade compounds, a weighed amount was placed in an individual 100 to 200 mL glass vial and dissolved in a volume of acetone to obtain concentrated stock solutions.
Applications were made by injecting with a pipetter appropriate amounts of the application solutions, individually and sequentially, into the aqueous layer of the paddy. Control plants were treated in the same manner with the solvent blank. Applications were made so that all treated plant material received the same concentrations of acetone and crop oil concentrate.
The treated plants and control plants were placed in a greenhouse as described above and water was added as needed to maintain a paddy flood. After approximately 3 weeks the condition of the test plants as compared with that of the untreated plants was determined visually and scored on a scale of 0 to 100 percent where 0 corresponds to no injury or growth inhibition and 100 corresponds to complete kill.
as §10, §11

[1] = r9-11 acid 5.3/10.6/21.2 g ae/ha alone, r12 myclobutanil 250 g ai/ha alone, r13-15 acid 5.3/10.6/21.2 + 250

CCCC1COC(Cn2cncn2)(c2ccc(Cl)cc2Cl)O1 (stereo not drawn) [Propiconazole, 1-[2-(2,4-dichlorophenyl)-4-propyl-1,3-dioxolan-2-ylmethyl]-1H-1,2,4-triazole, reference compound]
Visual Weed Control (%) - 21 DAA DIGSA Obs (DIGSA): 0%

CC(C)Oc1cccc(NC(=O)c2ccccc2C(F)(F)F)c1 [Flutolanil, α,α,α-trifluoro-3′-isopropoxy-o-toluanilide, reference compound]
Visual Weed Control (%) - 19 DAA LEFCH Obs (LEFCH; 19 DAA, r9-11 ester 8/16/32 g ae/ha alone, r12-13 flutolanil 280/560 g ai/ha alone, r14-19 ester 8/16/32 at each of 280, 560): 0%
Visual Weed Control (%) - 19 DAA ECHCO Obs (ECHCO; r12-13 flutolanil 280/560 g ai/ha alone, r14-19 ester 8/16/32 at each of 280, 560): 0%

COC(=O)Nc1nc2ccccc2[nH]1 [Carbendazim, methyl benzimidazol-2-ylcarbamate, reference compound]
Visual Weed Control (%) - 19 DAA ECHCO Obs (ECHCO; r12-13 carbendazim 125/250 g ai/ha alone, r14-19 ester 8/16/32 at each of 125, 250): 0%

manganese ethylenebis(dithiocarbamate) (polymeric) complex with zinc salt [Mancozeb, reference compound]
Visual Weed Control (%) - 21 DAA LEFCH Obs (LEFCH; r10-11 ester 16/32 g ae/ha alone, r12 mancozeb 840 g ai/ha alone, r13-14 ester 16/32 + 840): 0%
Visual Weed Control (%) - 21 DAA IPOHE Obs (IPOHE; r20-22 ester 8/16/32 g ae/ha alone, r23 mancozeb 1680 g ai/ha alone, r24-26 ester 8/16/32 + 1680): 0%

CCCCC(C#N)(Cn1cncn1)c1ccc(Cl)cc1 (stereo not drawn) [Myclobutanil, 2-p-chlorophenyl-2-(1H-1,2,4-triazol-1-ylmethyl)hexanenitrile, reference compound]
Visual Weed Control (%) - 21 DAA LEFCH Obs (LEFCH; [1]): 0%
Visual Weed Control (%) - 21 DAA IPOHE Obs (IPOHE; [1]): 10%

O=C1OCc2c(Cl)c(Cl)c(Cl)c(Cl)c21 [Phthalide, 4,5,6,7-tetrachlorophthalide]
Visual Weed Control (%) - 21 DAA ECHCG Obs (ECHCG): 0%

COc1c(Cl)ccc(-c2nc(C(=O)O)c(Cl)c(N)c2F)c1F [Compound A Acid, 4-amino-3-chloro-5-fluoro-6-(4-chloro-2-fluoro-3-methoxy-phenyl)pyridine-2-carboxylic acid]
Visual Weed Control (%) - 22 DAA CYPRO Obs (CYPRO; Compound A Acid 10.6 g ae/ha): 0%
Visual Weed Control (%) - 22 DAA CYPRO Obs (CYPRO; Compound A Acid 21.2 g ae/ha): 25%
Visual Weed Control (%) - 22 DAA CYPRO Obs (CYPRO; Compound A Acid 42.4 g ae/ha): 95%
